In PMC11314561, “Design and Synthesis of Novel Aminoindazole-pyrrolo[2,3-b]pyridine Inhibitors of IKKα That Selectively Perturb Cellular Non-Canonical NF-κB Signalling” (Molecules, 2024):

How the values were obtained:
Format in all cases: biochemical
IKKβ = biological target: T1, IKKβ (Homo sapiens, UniProt O14920); assay: DELFIA kinase assay, IKKβ; settings: read-out: Ki Values IKKβ
T1 sequence (O14920 1-756): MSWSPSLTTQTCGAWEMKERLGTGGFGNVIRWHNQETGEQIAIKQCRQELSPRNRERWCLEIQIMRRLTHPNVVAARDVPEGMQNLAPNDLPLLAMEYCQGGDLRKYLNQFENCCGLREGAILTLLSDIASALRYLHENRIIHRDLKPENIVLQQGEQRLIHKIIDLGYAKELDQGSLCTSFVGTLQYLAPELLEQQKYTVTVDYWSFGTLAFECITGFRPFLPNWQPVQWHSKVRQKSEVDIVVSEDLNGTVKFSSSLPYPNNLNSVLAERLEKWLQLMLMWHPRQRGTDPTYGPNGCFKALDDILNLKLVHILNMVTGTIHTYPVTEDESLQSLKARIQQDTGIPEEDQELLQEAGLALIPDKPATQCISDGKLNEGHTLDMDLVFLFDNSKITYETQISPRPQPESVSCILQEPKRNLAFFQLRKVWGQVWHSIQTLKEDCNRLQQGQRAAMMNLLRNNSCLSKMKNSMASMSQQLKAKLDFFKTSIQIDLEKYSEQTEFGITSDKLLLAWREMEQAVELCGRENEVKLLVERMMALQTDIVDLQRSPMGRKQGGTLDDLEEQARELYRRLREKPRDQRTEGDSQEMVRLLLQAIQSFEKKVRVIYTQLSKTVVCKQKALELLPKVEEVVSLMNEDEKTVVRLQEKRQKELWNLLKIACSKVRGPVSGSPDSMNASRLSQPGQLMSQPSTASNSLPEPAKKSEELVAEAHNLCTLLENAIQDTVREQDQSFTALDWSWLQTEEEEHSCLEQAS
Protocol: IKKα and IKKβ inhibitory activity were determined using a dissociation-enhanced ligand fluorescent immunoassay (DELFIA) based on the protocol of HTScan™ IKKβ Kinase Assay (Cell Signaling Technology, Danvers, MA, USA) as described in [24].

Aurora-C(h) = biological target: T2, Aurora-C(h) (Homo sapiens, UniProt Q9UQB9); assay: kinase panel
T2 sequence (Q9UQB9 1-309): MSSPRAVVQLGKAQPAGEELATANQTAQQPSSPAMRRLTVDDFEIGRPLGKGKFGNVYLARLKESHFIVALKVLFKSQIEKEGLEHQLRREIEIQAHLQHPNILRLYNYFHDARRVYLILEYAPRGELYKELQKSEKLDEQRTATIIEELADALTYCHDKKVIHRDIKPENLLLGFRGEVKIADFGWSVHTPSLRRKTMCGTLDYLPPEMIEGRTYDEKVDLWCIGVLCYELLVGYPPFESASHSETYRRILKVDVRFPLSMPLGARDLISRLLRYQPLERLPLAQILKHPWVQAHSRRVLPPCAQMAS
Text: (§1) We profiled three compounds from the series across the kinome (Table S1).
(§2) Ta b l e S1. The % inhibition of compounds 4, 5r [SU1261], and 6g [SU1349] against a
(§3) panel of kinase enzymes. We proϐiled three compounds from the series across 231
(§4) kinases. For SU1349, given its structural similarity with SU1261, we selected 98 from the
(§5) Tested kinase % inhibiƟon

Plk1(h) = Plk1(h) (Homo sapiens, UniProt P53350); assay: kinase panel
Text: as §1, §2, §3, §4, §5

IRAK4(h) = biological target: T3, IRAK4(h) (Homo sapiens, UniProt Q9NWZ3); assay: kinase panel
T3 sequence (Q9NWZ3 1-460): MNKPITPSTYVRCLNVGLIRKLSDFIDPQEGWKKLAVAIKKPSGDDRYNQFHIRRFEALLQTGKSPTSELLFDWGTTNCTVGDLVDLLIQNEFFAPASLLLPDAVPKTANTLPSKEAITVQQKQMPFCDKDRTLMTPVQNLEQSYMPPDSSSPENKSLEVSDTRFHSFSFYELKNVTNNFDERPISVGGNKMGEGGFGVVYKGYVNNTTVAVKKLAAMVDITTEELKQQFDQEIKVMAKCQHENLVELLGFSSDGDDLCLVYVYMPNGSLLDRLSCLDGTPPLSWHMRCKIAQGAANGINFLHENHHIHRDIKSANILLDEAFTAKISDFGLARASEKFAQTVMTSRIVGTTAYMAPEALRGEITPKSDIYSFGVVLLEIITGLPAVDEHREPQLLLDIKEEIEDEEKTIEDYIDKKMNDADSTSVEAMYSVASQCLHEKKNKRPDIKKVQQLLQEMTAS
Text: as §1, §2, §3, §4, §5

PKCμ(h) = biological target: T4, PKCμ(h) (Homo sapiens, UniProt Q15139); assay: kinase panel
T4 sequence (Q15139 1-912): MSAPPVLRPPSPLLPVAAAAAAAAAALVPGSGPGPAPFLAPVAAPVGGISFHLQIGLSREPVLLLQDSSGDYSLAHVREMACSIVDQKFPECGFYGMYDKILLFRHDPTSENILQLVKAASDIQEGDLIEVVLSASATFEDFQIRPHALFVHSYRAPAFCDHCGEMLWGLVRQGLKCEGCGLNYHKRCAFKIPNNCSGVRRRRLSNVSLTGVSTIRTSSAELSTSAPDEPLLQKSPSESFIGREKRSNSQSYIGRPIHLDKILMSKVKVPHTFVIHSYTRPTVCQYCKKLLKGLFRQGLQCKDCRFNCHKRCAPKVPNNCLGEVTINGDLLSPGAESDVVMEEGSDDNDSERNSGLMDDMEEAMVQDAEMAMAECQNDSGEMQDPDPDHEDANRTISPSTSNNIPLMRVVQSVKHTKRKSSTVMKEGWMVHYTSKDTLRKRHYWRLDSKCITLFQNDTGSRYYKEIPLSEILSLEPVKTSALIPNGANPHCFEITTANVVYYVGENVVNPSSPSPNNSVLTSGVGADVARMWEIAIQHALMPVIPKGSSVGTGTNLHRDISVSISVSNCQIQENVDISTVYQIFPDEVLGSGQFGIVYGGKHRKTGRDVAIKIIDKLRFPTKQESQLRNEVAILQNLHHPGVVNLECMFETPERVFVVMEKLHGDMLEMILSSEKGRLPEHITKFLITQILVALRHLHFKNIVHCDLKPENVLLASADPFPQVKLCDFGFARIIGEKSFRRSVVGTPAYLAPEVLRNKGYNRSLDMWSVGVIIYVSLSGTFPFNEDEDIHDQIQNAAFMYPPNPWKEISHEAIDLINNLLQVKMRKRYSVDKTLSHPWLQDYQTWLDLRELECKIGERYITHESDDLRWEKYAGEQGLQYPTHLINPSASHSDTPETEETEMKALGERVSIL
Text: as §1, §2, §3, §4, §5

Abl(h) = Abl(h) (Homo sapiens, UniProt P00519); assay: kinase panel
Text: as §1, §2, §3, §4, §5

IR(h) = IR(h) (Homo sapiens, UniProt P06213); assay: kinase panel
Text: as §1, §2, §3, §4, §5

PRK2(h) = PRK2(h) (Homo sapiens, UniProt Q16513); assay: kinase panel
Text: as §1, §2, §3, §4, §5

IR(h), sequence (P06213 28-1382): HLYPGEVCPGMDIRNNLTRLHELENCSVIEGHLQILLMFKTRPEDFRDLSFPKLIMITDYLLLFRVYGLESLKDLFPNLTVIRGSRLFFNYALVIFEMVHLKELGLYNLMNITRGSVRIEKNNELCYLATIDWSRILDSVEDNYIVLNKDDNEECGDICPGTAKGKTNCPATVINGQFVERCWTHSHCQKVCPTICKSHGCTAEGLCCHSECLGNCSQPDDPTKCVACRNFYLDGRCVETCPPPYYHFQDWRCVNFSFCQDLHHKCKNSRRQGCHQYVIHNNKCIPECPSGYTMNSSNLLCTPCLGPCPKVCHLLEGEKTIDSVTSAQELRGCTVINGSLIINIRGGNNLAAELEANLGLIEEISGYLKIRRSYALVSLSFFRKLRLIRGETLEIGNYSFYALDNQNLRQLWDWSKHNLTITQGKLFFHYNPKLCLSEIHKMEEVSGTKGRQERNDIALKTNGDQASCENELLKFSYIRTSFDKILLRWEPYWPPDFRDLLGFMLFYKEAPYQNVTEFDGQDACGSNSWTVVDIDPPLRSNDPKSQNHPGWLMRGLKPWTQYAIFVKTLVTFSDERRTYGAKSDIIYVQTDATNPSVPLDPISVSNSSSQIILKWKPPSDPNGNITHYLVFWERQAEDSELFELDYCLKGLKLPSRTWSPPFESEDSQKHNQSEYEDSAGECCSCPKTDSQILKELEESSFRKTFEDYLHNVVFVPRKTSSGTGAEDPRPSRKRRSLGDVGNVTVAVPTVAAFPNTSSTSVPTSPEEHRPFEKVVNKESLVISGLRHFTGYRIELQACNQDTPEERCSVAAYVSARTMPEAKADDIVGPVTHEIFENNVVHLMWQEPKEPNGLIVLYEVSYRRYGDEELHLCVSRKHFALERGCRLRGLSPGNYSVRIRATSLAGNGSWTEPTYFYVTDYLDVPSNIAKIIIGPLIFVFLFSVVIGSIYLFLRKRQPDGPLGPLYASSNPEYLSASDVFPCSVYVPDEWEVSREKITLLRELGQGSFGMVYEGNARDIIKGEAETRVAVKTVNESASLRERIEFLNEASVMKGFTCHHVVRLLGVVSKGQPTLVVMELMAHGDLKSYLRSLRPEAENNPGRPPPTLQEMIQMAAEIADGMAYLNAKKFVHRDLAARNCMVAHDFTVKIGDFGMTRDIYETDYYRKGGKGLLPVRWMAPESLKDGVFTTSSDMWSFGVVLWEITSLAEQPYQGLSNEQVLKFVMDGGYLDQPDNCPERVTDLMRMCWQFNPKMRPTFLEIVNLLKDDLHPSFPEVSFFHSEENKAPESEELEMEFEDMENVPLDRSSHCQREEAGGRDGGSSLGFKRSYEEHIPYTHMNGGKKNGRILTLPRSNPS
Plk1(h), sequence (P53350 whole entry): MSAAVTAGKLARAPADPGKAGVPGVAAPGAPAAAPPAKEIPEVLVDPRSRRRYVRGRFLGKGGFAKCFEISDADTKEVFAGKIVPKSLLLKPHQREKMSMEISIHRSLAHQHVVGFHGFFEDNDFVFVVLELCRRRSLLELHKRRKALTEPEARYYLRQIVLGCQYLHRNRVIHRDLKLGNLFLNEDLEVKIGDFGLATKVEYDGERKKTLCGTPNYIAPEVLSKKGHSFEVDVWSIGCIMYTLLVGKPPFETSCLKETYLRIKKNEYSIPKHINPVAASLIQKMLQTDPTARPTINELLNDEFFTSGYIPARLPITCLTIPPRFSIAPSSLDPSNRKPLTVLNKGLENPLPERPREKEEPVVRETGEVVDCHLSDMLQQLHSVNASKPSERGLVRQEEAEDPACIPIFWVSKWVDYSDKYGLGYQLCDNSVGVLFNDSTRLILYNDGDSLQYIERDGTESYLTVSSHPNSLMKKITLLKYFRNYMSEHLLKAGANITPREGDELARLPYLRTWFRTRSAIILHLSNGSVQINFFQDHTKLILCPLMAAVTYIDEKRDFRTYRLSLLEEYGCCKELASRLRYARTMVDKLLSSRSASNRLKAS
Abl(h), sequence (P00519 whole entry): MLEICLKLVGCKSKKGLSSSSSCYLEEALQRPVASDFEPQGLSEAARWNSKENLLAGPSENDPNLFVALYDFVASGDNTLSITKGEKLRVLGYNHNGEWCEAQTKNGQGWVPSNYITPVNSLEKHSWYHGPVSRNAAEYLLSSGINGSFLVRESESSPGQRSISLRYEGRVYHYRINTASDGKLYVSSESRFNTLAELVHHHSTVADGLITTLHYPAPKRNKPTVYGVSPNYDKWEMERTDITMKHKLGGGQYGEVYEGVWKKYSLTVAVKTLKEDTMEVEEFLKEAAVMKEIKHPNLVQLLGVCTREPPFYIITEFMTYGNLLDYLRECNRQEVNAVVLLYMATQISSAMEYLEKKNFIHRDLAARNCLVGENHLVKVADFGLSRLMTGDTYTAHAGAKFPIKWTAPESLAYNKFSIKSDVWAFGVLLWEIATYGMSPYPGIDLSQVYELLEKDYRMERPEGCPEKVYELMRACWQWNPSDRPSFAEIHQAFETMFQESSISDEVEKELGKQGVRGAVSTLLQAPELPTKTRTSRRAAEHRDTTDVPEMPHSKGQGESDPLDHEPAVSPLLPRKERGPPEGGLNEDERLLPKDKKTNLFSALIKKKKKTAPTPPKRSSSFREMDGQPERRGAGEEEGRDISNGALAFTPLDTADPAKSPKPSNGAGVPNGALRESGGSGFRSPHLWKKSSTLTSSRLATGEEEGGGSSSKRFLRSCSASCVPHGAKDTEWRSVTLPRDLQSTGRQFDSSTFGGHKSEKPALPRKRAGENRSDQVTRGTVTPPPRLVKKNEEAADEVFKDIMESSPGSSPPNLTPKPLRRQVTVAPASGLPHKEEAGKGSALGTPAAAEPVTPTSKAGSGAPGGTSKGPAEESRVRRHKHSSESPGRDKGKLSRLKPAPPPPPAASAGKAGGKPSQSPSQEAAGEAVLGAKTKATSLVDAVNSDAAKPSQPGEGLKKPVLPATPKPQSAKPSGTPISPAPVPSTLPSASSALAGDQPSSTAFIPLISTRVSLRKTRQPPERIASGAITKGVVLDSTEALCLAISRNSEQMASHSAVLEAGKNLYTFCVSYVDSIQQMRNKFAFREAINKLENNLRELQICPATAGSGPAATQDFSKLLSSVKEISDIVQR
PRK2(h), sequence (Q16513 whole entry): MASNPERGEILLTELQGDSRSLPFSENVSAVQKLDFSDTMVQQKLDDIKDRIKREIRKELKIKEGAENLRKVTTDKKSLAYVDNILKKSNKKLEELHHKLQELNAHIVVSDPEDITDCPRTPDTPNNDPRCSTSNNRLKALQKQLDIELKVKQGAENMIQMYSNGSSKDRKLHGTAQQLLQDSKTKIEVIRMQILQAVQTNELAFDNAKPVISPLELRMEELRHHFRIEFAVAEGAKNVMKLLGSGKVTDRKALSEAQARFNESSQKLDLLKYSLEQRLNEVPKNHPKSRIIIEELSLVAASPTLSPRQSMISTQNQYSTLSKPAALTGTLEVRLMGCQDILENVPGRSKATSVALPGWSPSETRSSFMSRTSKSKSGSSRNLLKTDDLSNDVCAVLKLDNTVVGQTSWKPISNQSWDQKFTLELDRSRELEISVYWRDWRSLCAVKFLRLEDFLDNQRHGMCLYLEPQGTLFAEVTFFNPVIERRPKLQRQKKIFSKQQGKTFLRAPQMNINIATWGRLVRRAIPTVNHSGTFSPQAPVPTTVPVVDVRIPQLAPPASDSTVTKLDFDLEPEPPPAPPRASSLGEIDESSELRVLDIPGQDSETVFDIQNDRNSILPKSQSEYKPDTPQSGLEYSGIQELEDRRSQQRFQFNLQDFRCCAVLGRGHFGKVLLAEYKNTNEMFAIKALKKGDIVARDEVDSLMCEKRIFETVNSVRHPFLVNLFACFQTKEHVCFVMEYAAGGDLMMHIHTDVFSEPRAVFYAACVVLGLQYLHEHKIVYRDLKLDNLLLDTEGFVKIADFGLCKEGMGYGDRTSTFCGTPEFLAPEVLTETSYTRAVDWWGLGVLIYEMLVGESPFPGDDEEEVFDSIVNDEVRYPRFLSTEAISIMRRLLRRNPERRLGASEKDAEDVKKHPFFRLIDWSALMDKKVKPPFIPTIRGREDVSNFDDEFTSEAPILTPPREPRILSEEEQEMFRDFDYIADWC

Ki (IKKβ) | inhibition at 1 µM (Aurora-C(h)) | inhibition at 1 µM (Plk1(h)) | inhibition at 1 µM (IRAK4(h)) | inhibition at 1 µM (PKCμ(h)) | inhibition at 1 µM (Abl(h)) | inhibition at 1 µM (IR(h)) | inhibition at 1 µM (PRK2(h)) | SMILES
15 nM | 90% | -5% | 25% | 21% | 86% | 50% | 85% | Nc1n[nH]c2ccc(-c3ccnc4[nH]c(-c5ccccc5)cc34)cc12 [Compound 4]
680 nM | 32% | -1% | 3% | 18% | 44% | 4% | 56% | Nc1n[nH]c2ccc(-c3ccnc4[nH]c(-c5cccc(OCc6ccccc6)c5)cc34)cc12 [Compound 5r [SU1261]]
3350 nM | 19% | 2% | -8% | -9% | 15% | -1% | 19% | Nc1n[nH]c2ccc(-c3ccnc4[nH]c(-c5ccnc(OCc6ccccc6)c5)cc34)cc12 [Compound 6g [SU1349]]
